In doi:10.1101/2024.09.17.613365, “Type-II kinase inhibitors that target Parkinson’s Disease-associated LRRK2” (bioRxiv, 2025):

molecular target: T1, leucine-rich repeat kinase 2 (LRRK2) (Homo sapiens, UniProt Q5S007); test: biochemical; parameters: PhosphoSense (AssayQuant) kinase activity assay with purified LRRK2 RCKW; details: not given
T1 construct: LRRK2^RCKW (ROC, COR, Kinase, WD40)
T1 sequence (Q5S007 1327-2527 limits assumed): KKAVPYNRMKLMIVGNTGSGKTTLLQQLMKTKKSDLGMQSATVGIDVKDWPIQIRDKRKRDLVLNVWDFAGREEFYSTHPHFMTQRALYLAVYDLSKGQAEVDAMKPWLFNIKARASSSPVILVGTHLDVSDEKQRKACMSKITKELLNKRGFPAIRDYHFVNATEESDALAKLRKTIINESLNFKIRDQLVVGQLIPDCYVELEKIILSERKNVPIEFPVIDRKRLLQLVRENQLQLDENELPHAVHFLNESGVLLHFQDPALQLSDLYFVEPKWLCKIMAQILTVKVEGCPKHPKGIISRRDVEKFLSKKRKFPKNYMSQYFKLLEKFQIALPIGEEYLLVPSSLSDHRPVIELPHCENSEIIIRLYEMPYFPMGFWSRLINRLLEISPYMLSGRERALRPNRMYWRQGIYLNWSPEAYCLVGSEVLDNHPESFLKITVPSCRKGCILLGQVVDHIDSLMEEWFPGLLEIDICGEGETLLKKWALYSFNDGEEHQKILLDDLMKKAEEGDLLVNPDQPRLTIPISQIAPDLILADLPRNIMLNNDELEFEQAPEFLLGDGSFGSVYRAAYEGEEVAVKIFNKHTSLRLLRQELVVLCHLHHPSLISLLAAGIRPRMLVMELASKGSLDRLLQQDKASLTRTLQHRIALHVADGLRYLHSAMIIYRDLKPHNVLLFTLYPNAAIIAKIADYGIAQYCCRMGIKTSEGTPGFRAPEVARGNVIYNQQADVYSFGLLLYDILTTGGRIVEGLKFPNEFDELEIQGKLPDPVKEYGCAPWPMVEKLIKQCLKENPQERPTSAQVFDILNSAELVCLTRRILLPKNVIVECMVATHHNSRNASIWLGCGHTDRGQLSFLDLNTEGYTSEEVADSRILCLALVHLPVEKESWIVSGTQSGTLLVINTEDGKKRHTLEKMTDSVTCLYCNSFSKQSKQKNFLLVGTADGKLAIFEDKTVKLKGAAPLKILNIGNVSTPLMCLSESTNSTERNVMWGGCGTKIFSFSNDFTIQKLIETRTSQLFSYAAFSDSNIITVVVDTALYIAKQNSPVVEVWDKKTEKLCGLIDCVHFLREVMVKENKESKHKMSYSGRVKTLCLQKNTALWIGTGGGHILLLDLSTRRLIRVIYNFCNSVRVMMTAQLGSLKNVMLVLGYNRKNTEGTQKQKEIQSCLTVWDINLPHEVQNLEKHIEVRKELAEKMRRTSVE
Source text: Next, we evaluated the potency and selectivity of these new compounds. We performed on-target screening by measuring the thermostability increase of LRRK2^KW in the presence of the new compounds using DSF (Supporting Information Table S2). We also determined the in vitro IC50 (median inhibitory concentration) values for each of the new compounds by purifying LRRK2^RCKW and measuring its kinase activity in the presence of our new inhibitors using the PhosphoSense® activity assay from AssayQuant (Supporting Information Table S2). Finally, we estimated the kinome selectivity of each compound by measuring the thermostability increase of approximately 100 representative kinases in the presence of the compounds via DSF (Supporting Information Table S2).

SMILES | IC50 [µM]
NC(=O)C1(C(=O)N(c2ccc(F)cc2)c2cccc(-c3c[nH]c4ncnc(N5CCOCC5)c34)c2)CC1 [compound 2, N-(4-fluorophenyl)-N-(3-(4-morpholino-7H-pyrrolo[2,3-d]pyrimidin-5-yl)phenyl)cyclopropane-1,1-dicarboxamide] | 0.185 ± 0.01
NC(=O)C1(C(=O)N(c2ccc(F)cc2)c2cccc(-c3c[nH]c4ncnc(N5CCOCC5)c34)c2)CCCC1 [compound 3, N-(4-fluorophenyl)-N-(3-(4-morpholino-7H-pyrrolo[2,3-d]pyrimidin-5-yl)phenyl)cyclopentane-1,1-dicarboxamide] | 0.694 ± 0.001
Cc1ccc(N(C(=O)C2(C(N)=O)CC2)c2ccc(F)cc2)cc1-c1c[nH]c2ncnc(N3CCOCC3)c12 [compound 5, N-(4-fluorophenyl)-N-(4-methyl-3-(4-morpholino-7H-pyrrolo[2,3-d]pyrimidin-5-yl)phenyl)cyclopropane-1,1-dicarboxamide] | 9.58 ± 0.565
Cc1cc(-c2c[nH]c3ncnc(N4CCOCC4)c23)cc(N(C(=O)C2(C(N)=O)CC2)c2ccc(F)cc2)c1 [compound 6, N-(4-fluorophenyl)-N-(3-methyl-5-(4-morpholino-7H-pyrrolo[2,3-d]pyrimidin-5-yl)phenyl)cyclopropane-1,1-dicarboxamide] | 2.15 ± 0.076
Cc1ccc(-c2c[nH]c3ncnc(N4CCOCC4)c23)cc1N(C(=O)C1(C(N)=O)CC1)c1ccc(F)cc1 [compound 7, N-(4-fluorophenyl)-N-(2-methyl-5-(4-morpholino-7H-pyrrolo[2,3-d]pyrimidin-5-yl)phenyl)cyclopropane-1,1-dicarboxamide] | 10.5 ± 1.02
Cn1cc(N(C(=O)C2(C(N)=O)CC2)c2cccc(-c3c[nH]c4ncnc(N5CCOCC5)c34)c2)cn1 [compound 9, N-(1-methyl-1H-pyrazol-4-yl)-N-(3-(4-morpholino-7H-pyrrolo[2,3-d]pyrimidin-5-yl)phenyl)cyclopropane-1,1-dicarboxamide] | 2.11 ± 1.19

same assay, conditions: read-out: IC50 (cells in μM)

SMILES | IC50 [µM]
NC(=O)C1(C(=O)N(c2ccc(F)cc2)c2ccc(Oc3ccc4n[nH]cc4c3)cc2)CC1 [compound 48, N-(4-((2H-indazol-5-yl)oxy)phenyl)-N-(4-fluorophenyl)cyclopropane-1,1-dicarboxamide] | > 15
NC(=O)C1(C(=O)N(c2ccc(F)cc2)c2ccc(Nc3ccc4n[nH]cc4c3)cc2)CC1 [compound 49, N-(4-((2H-indazol-5-yl)amino)phenyl)-N-(4-fluorophenyl)cyclopropane-1,1-dicarboxamide] | > 15
Cc1cn(-c2cc(NC(=O)c3ccc(C)c(Nc4ccc5n[nH]cc5c4)c3)cc(C(F)(F)F)c2)cn1 [compound 50, 3-((2H-indazol-5-yl)amino)-4-methyl-N-(3-(4-methyl-1H-imidazol-1-yl)-5-(trifluoromethyl)phenyl)benzamide] | > 15
NC(=O)C1(C(=O)N(c2ccc(F)cc2)c2ccc3cn[nH]c3c2)CC1 [compound 51, N-(4-fluorophenyl)-N-(1H-indazol-6-yl)cyclopropane-1,1-dicarboxamide] | > 15

molecular target: T2, LRRK2^KW (Homo sapiens, UniProt Q5S007); test: not given; parameters: Differential scanning fluorometry, thermal stabilization of LRRK2 KW by compound; details: binder
T2 construct: Kinase and WD40 domain construct (KW)
T2 sequence (Q5S007 whole entry, the tested form may be a part): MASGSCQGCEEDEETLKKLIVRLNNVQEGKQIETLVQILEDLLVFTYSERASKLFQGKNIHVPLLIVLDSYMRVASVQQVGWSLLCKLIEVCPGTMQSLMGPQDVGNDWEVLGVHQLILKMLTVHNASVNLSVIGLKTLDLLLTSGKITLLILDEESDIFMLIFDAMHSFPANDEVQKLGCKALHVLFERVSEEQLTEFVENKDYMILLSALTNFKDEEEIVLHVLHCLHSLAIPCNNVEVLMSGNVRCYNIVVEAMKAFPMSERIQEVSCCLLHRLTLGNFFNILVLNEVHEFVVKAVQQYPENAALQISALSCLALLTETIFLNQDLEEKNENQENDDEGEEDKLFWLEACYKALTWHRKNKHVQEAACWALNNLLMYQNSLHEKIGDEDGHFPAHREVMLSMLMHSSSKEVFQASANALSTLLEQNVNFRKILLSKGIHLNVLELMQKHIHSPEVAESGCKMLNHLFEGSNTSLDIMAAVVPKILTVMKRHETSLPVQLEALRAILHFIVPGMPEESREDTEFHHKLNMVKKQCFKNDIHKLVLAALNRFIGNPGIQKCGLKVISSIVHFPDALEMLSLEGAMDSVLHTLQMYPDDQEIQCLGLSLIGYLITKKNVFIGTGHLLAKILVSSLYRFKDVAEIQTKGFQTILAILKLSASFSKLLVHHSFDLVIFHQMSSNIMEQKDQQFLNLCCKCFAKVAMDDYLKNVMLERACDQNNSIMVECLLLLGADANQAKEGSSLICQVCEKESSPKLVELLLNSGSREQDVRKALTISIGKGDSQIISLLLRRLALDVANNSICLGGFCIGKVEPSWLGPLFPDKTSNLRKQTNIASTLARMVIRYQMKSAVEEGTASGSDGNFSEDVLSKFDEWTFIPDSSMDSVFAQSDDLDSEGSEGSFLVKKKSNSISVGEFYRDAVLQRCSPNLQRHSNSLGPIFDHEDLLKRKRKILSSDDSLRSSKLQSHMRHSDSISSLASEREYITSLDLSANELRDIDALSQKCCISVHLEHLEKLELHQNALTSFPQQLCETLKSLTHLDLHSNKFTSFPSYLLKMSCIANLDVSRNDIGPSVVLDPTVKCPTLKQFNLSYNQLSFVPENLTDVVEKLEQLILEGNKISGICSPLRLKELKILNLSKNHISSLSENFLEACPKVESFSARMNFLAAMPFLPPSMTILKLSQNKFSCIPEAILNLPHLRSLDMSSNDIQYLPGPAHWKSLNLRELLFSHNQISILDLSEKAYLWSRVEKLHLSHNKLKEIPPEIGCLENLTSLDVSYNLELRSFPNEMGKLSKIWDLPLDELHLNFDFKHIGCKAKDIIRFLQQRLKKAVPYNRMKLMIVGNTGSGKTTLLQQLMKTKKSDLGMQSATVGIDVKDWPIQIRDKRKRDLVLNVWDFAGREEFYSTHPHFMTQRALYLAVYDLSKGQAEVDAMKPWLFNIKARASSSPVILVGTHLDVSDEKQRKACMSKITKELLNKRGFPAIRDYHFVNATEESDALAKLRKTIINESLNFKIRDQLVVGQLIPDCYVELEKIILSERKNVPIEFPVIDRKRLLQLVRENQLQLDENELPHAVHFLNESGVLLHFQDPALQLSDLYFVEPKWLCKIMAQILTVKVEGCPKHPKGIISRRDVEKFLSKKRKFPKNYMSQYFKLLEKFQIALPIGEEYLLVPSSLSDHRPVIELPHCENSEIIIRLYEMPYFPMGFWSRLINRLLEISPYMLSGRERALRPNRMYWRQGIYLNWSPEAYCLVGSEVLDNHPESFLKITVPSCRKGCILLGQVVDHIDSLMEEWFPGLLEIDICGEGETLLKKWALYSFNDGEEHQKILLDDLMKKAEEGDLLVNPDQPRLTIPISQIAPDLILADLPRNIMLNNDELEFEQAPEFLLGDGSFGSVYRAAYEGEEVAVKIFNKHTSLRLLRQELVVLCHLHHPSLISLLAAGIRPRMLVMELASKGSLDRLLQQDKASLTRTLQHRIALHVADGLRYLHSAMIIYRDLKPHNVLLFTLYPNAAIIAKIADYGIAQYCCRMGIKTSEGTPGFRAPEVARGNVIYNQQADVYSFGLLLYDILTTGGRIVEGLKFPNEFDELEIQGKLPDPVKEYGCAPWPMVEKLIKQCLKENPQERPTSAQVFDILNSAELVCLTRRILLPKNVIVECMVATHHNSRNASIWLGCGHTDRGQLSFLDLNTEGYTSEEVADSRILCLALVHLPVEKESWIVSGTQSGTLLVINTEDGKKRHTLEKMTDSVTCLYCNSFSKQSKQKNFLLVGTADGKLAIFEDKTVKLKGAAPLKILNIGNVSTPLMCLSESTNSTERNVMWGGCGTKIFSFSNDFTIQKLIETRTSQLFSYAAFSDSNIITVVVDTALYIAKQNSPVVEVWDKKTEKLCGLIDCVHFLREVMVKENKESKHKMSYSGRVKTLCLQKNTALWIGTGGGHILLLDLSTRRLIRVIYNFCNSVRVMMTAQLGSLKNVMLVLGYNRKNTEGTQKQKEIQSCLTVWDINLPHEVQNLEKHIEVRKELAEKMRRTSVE
Source text: Next, we evaluated the potency and selectivity of these new compounds. We performed on-target screening by measuring the thermostability increase of LRRK2^KW in the presence of the new compounds using DSF (Supporting Information Table S2). We also determined the in vitro IC50 (median inhibitory concentration) values for each of the new compounds by purifying LRRK2^RCKW and measuring its kinase activity in the presence of our new inhibitors using the PhosphoSense® activity assay from AssayQuant (Supporting Information Table S2). Finally, we estimated the kinome selectivity of each compound by measuring the thermostability increase of approximately 100 representative kinases in the presence of the compounds via DSF (Supporting Information Table S2). […] Additionally, we screened a library of published type-II inhibitors to identify those that bind to LRRK2^KW (a Kinase and WD40 domain construct of LRRK2) with high affinity.

SMILES | ΔTm [K]
Cc1ccc(-n2nc(C(C)(C)C)cc2NC(=O)Nc2cccc(-c3c[nH]c4nc(Cl)nc(N5CCOCC5)c34)c2)cc1 [compound 30, RN277] | 18.0
CCSc1nc(NC)c2c(-c3cccc(NC(=O)Nc4cc(C(C)(C)C)nn4-c4ccc(C)cc4)c3)c[nH]c2n1 [compound 32, RN341] | 19.9
COc1cc(C(=O)N2CCOCC2)c(F)cc1Nc1nc(N(C)C)c2c(Cl)c[nH]c2n1 [compound 33] | 16.0
COc1cc(S(C)(=O)=O)ccc1Nc1nc(N(C)C)c2c(-c3cccc(NC(=O)Nc4cc(C(C)(C)C)nn4-c4ccc(C)cc4)c3)c[nH]c2n1 [compound 35, 1-(3-(tert-butyl)-1-(p-tolyl)-1H-pyrazol-5-yl)-3-(3-(4-(dimethylamino)-2-((2-methoxy-4-(methylsulfonyl)phenyl)amino)-7H-pyrrolo[2,3-d]pyrimidin-5-yl)phenyl)urea] | 1.0
COc1cc(C(=O)N2CCOCC2)c(F)cc1Nc1nc(N(C)C)c2c(-c3cccc(NC(=O)Nc4cc(C(C)(C)C)nn4-c4ccc(C)cc4)c3)c[nH]c2n1 [compound 36, 1-(3-(tert-butyl)-1-(p-tolyl)-1H-pyrazol-5-yl)-3-(3-(4-(dimethylamino)-2-((5-fluoro-2-methoxy-4-(morpholine-4-carbonyl)phenyl)amino)-7H-pyrrolo[2,3-d]pyrimidin-5-yl)phenyl)urea] | 0.0
COc1cc(S(C)(=O)=O)ccc1Nc1nc(N(C)C)c2c(-c3cccc(NC(=O)Nc4cc(C(C)(C)C)nn4-c4ccc5ncccc5c4)c3)c[nH]c2n1 [compound 37, 1-(3-(tert-butyl)-1-(quinolin-6-yl)-1H-pyrazol-5-yl)-3-(3-(4-(dimethylamino)-2-((2-methoxy-4-(methylsulfonyl)phenyl)amino)-7H-pyrrolo[2,3-d]pyrimidin-5-yl)phenyl)urea] | 1.5

molecular target: T2, LRRK2^KW; test: not given; parameters: DSF thermal shift of purified LRRK2 KW construct with compound; details: binder; remark: another data set of the same source
Source text: Additionally, we screened a library of published type-II inhibitors to identify those that bind to LRRK2^KW (a Kinase and WD40 domain construct of LRRK2) with high affinity. […] Next, we evaluated the potency and selectivity of these new compounds. We performed on-target screening by measuring the thermostability increase of LRRK2^KW in the presence of the new compounds using DSF (Supporting Information Table S2). We also determined the in vitro IC50 (median inhibitory concentration) values for each of the new compounds by purifying LRRK2^RCKW and measuring its kinase activity in the presence of our new inhibitors using the PhosphoSense® activity assay from AssayQuant (Supporting Information Table S2). Finally, we estimated the kinome selectivity of each compound by measuring the thermostability increase of approximately 100 representative kinases in the presence of the compounds via DSF (Supporting Information Table S2).

SMILES | dTm LRRK2(KW) [K] | ∆Tm [K]
CCN1CCN(Cc2ccc(NC(=O)c3ccc(C)c(NC(=O)c4cncc(-c5cccs5)c4)c3)cc2C(F)(F)F)CC1 [ALW-II-41-27] | -0.5 | 
Cc1ccc(NC(=O)c2cccc(C(C)(C)C#N)c2)cc1Nc1ccc2ncn(C)c(=O)c2c1 [AZ 628] | -0.5 | 
N#CC1(c2ccc(NC(=O)c3cccnc3NCc3ccncc3)cc2)CCCC1 [Apatinib] | -1 | 
COc1cc(Oc2ccnc3cc(OC)c(OC)cc23)ccc1NC(=O)NC(C)c1nccs1 (stereo not shown) [KI20227] | 3 | 
CC1(C)CNc2cc(NC(=O)c3cccnc3NCc3ccncc3)ccc21 [Motesanib] | -0.5 | 
Cc1ccc(C(=O)Nc2cccc(C(F)(F)F)c2)cc1Nc1nc(-c2cccnc2)nc2c1cnn2C [NVP-BHG712] | -0.5 | 
Cc1cn(-c2cc(NC(=O)c3ccc(C)c(Nc4nccc(-c5cccnc5)n4)c3)cc(C(F)(F)F)c2)cn1 [Nilotinib] | -2.5 | 
Cc1ccc(-n2nc(C(C)(C)C)cc2NC(=O)Nc2cc(COc3cccnc3)[nH]n2)cc1 [PF-4618433] | 11 | 
CNC(=O)c1cc(Oc2ccc(NC(=O)Nc3ccc(Cl)c(C(F)(F)F)c3)c(F)c2)ccn1 [Regorafinib] | 5.5 | 
Cc1ccc(NC(=O)c2cccc(N(C)C)c2)cc1NC(=O)c1ccc(O)cc1 [ZM336372] | -1 | 
COc1cc2c(Nc3ccc(NC(=O)c4ccccc4)cc3)ncnc2cc1OCCCN1CCOCC1 [ZM447439] | 6.5 | 
NC(=O)C1(C(=O)N(c2ccc(F)cc2)c2ccc(Oc3ccc4n[nH]cc4c3)cc2)CC1 [compound 48, N-(4-((2H-indazol-5-yl)oxy)phenyl)-N-(4-fluorophenyl)cyclopropane-1,1-dicarboxamide] |  | 1.0
NC(=O)C1(C(=O)N(c2ccc(F)cc2)c2ccc(Nc3ccc4n[nH]cc4c3)cc2)CC1 [compound 49, N-(4-((2H-indazol-5-yl)amino)phenyl)-N-(4-fluorophenyl)cyclopropane-1,1-dicarboxamide] |  | 2.0
Cc1cn(-c2cc(NC(=O)c3ccc(C)c(Nc4ccc5n[nH]cc5c4)c3)cc(C(F)(F)F)c2)cn1 [compound 50, 3-((2H-indazol-5-yl)amino)-4-methyl-N-(3-(4-methyl-1H-imidazol-1-yl)-5-(trifluoromethyl)phenyl)benzamide] |  | 1.5
NC(=O)C1(C(=O)N(c2ccc(F)cc2)c2ccc3cn[nH]c3c2)CC1 [compound 51, N-(4-fluorophenyl)-N-(1H-indazol-6-yl)cyclopropane-1,1-dicarboxamide] |  | 1.0
